From ChEMBL document CHEMBL1201862, “PubChem BioAssay data set” (2004)
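The compound was tested at five concentrations on cells cultured in 96-well plates, with a 48-hour exposure period. GI50: concentration for 50% inhibition of growth.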 Active and inactive are the calls of the source. No stated cut-off is given here; in the data, active = GI50 up to about 1.1 µM and inactive = higher.

How the values were obtained:
Assay in all cases: NCI anticancer screen, dose series, 48 h
SF-539 = tested on: SF-539
EKVX = tested on: EKVX
U-251 = tested on: U-251
UACC-257 = tested on: UACC-257
DU-145 = tested on: DU-145
SK-MEL-5 = tested on: SK-MEL-5
OVCAR-8 = tested on: OVCAR-8
M14 = tested on: M14
NCI-H23 = tested on: NCI-H23
UACC-62 = tested on: UACC-62
786-0 = tested on: 786-0
K562 = tested on: K562
COLO 205 = tested on: COLO 205
A549 = tested on: A549
NCI-H460 = tested on: NCI-H460
HOP-92 = tested on: HOP-92
LOX IMVI = tested on: LOX IMVI
PC-3 = tested on: PC-3
KM12 = tested on: KM12

Compound | GI50 (SF-539) | GI50 (EKVX) | GI50 (U-251) | GI50 (UACC-257) | GI50 (DU-145) | GI50 (SK-MEL-5) | GI50 (OVCAR-8) | GI50 (M14) | GI50 (NCI-H23) | GI50 (UACC-62) | GI50 (786-0) | GI50 (K562) | GI50 (COLO 205) | GI50 (A549) | GI50 (NCI-H460) | GI50 (HOP-92) | GI50 (LOX IMVI) | GI50 (PC-3) | GI50 (KM12)
CCOC(=O)c1c(C)n(CCN2CCN(C)CC2)c2ccc(OC)cc12 | 30 µM (inactive) | > 100 µM (inactive) | 31.8 µM (inactive) | 16.9 µM (inactive) | > 100 µM (inactive) | 16.5 µM (inactive) | > 100 µM (inactive) | 16 µM (inactive) | > 100 µM (inactive) | 17 µM (inactive) | 38 µM (inactive) | 20.7 µM (inactive) | 16.9 µM (inactive) | > 100 µM (inactive) | 48.9 µM (inactive) | 14 µM (inactive) | 16.6 µM (inactive) | 34 µM (inactive) | 44.3 µM (inactive)
C[C@]12CC[C@@H]3c4cc(OCC(F)(F)F)c(O)cc4CC[C@H]3[C@@H]1CC[C@@H]2O | 1.38 µM (inactive) | 8.17 µM (inactive) | 2.22 µM (inactive) | 7.1 µM (inactive) | 6.3 µM (inactive) | 3.38 µM (inactive) | 4.83 µM (inactive) | 1.52 µM (inactive) | 4.75 µM (inactive) | 2.32 µM (inactive) | 3.24 µM (inactive) | 0.438 µM (active) | 15 µM (inactive) | 5.41 µM (inactive) | 1.44 µM (inactive) | 9.31 µM (inactive) | 2.94 µM (inactive) | 2.28 µM (inactive) | 4.06 µM (inactive)
O=C1Cc2c(-c3ccc(Cl)cc3)cc(-c3ccccc3)nc2-c2ccccc2N1 | 8.87 µM (inactive) | 10.5 µM (inactive) | 3.08 µM (inactive) | 25.4 µM (inactive) | 8.18 µM (inactive) | 5.15 µM (inactive) | 2.76 µM (inactive) | 11.6 µM (inactive) | 10.5 µM (inactive) | 11.9 µM (inactive) | 2.03 µM (inactive) | 15.1 µM (inactive) | 2.46 µM (inactive) | 5.66 µM (inactive) | 2.1 µM (inactive) | 2.4 µM (inactive) | 6.56 µM (inactive) | 19.4 µM (inactive) | 9.25 µM (inactive)
c1ccc2oc(-c3ccc(-c4nc5ccccc5o4)c4c3CC4)nc2c1 | > 100 µM (inactive) | > 100 µM (inactive) | > 100 µM (inactive) | > 100 µM (inactive) | > 100 µM (inactive) | > 100 µM (inactive) | > 100 µM (inactive) | > 100 µM (inactive) | > 100 µM (inactive) | > 100 µM (inactive) | > 100 µM (inactive) | > 100 µM (inactive) | > 100 µM (inactive) | > 100 µM (inactive) | > 100 µM (inactive) | > 100 µM (inactive) | > 100 µM (inactive) | > 100 µM (inactive) | > 100 µM (inactive)
N#Cc1sc2c(c1OC(=O)c1ccc(Cl)cc1Cl)c(=O)n(-c1ccccc1)c(=S)n2-c1ccccc1 | 18.2 µM (inactive) | 31.8 µM (inactive) | 15.4 µM (inactive) | 71.9 µM (inactive) | 36.1 µM (inactive) | 16.6 µM (inactive) | 19.9 µM (inactive) | 18.2 µM (inactive) | 18.8 µM (inactive) | 18.4 µM (inactive) | 26 µM (inactive) | 17.1 µM (inactive) | 19.7 µM (inactive) | 30.5 µM (inactive) | 33.3 µM (inactive) | 20.2 µM (inactive) | 19.2 µM (inactive) | 25.4 µM (inactive) | 24 µM (inactive)
C#CC(O)/C=C/CCCCCCC#CC/C=C\CC#CCCCCCC/C=C/C(O)C#C (stereo unspecified) | 24.5 µM (inactive) | 2.3 µM (inactive) | 12.4 µM (inactive) | 2.39 µM (inactive) | 3.01 µM (inactive) | 1.44 µM (inactive) | 3.03 µM (inactive) | 1.03 µM (active) | 0.701 µM (active) | 2.64 µM (inactive) | 2.09 µM (inactive) | 2.05 µM (inactive) | 2 µM (inactive) | 2.59 µM (inactive) | 4.35 µM (inactive) | 2.4 µM (inactive) | 0.0104 µM (active) | 11.6 µM (inactive) | 2.32 µM (inactive)
O=C1CSC(c2ccccc2O)N1c1ccc(Oc2ccc(Cl)cc2)c(Cl)c1 (stereo unspecified) | 15.7 µM (inactive) | 16.8 µM (inactive) | 17.3 µM (inactive) | 26.2 µM (inactive) | 21.1 µM (inactive) | 17.2 µM (inactive) | 25.5 µM (inactive) | 29.8 µM (inactive) | 18.1 µM (inactive) | 16.4 µM (inactive) | 18.8 µM (inactive) | 29.9 µM (inactive) | 18.5 µM (inactive) | 18.4 µM (inactive) | 19.4 µM (inactive) | 18.7 µM (inactive) | 16.6 µM (inactive) | 22.3 µM (inactive) | 17.5 µM (inactive)
COc1ccc2c(c1)N(C(C)=O)CN1C(=O)CCC21 (stereo unspecified) | > 100 µM (inactive) | > 100 µM (inactive) | > 100 µM (inactive) | > 100 µM (inactive) | > 100 µM (inactive) | > 100 µM (inactive) | > 100 µM (inactive) | > 100 µM (inactive) | > 100 µM (inactive) | > 100 µM (inactive) | > 100 µM (inactive) | 79.6 µM (inactive) | > 100 µM (inactive) | > 100 µM (inactive) | > 100 µM (inactive) | > 100 µM (inactive) | > 100 µM (inactive) | > 100 µM (inactive) | > 100 µM (inactive)
O=C(Nc1ccc(N2C(=O)CSC2c2cccs2)cc1)c1ccc(N2C(=O)CSC2c2cccs2)cc1 (stereo unspecified) | > 100 µM (inactive) | > 100 µM (inactive) | 86.5 µM (inactive) | > 100 µM (inactive) | > 100 µM (inactive) | > 100 µM (inactive) | > 100 µM (inactive) | > 100 µM (inactive) | 24.8 µM (inactive) | 56.5 µM (inactive) | 58.6 µM (inactive) | 56.2 µM (inactive) | > 100 µM (inactive) | 37.2 µM (inactive) | > 100 µM (inactive) | > 100 µM (inactive) | 88.9 µM (inactive) | > 100 µM (inactive) | > 100 µM (inactive)
CC[S+]([O-])c1c2cc(OC)ccc2nc2ccc(OC)cc12 (stereo unspecified) | 6.79 µM (inactive) | 16.9 µM (inactive) | 16.7 µM (inactive) | 5.45 µM (inactive) | 2.59 µM (inactive) | 16.4 µM (inactive) | 5.55 µM (inactive) | 10.2 µM (inactive) | 6.05 µM (inactive) | 16.9 µM (inactive) | 2.56 µM (inactive) | 2.42 µM (inactive) | 6.08 µM (inactive) | 22.6 µM (inactive) | 29.5 µM (inactive) | 7.16 µM (inactive) | 2.58 µM (inactive) | 10.7 µM (inactive) | 16.2 µM (inactive)
OCC1OC(n2nc(-c3ccccc3)nc2-c2cnccn2)C(O)C1O (stereo unspecified) | > 100 µM (inactive) | > 100 µM (inactive) | > 100 µM (inactive) | > 100 µM (inactive) | > 100 µM (inactive) | > 100 µM (inactive) | > 100 µM (inactive) | > 100 µM (inactive) | > 100 µM (inactive) | > 100 µM (inactive) | > 100 µM (inactive) | > 100 µM (inactive) | > 100 µM (inactive) | > 100 µM (inactive) | > 100 µM (inactive) | > 100 µM (inactive) | > 100 µM (inactive) | > 100 µM (inactive) | > 100 µM (inactive)
Cc1ccc(C(=O)/C=C2\Nc3ccccc3SC2=O)c(C)c1 | 43 µM (inactive) | 54.3 µM (inactive) | 44.9 µM (inactive) | 42 µM (inactive) | 75.7 µM (inactive) | 38.5 µM (inactive) | 35.6 µM (inactive) | 62.1 µM (inactive) | 36.9 µM (inactive) | 32.7 µM (inactive) | 26.2 µM (inactive) | 41.3 µM (inactive) | 53.1 µM (inactive) | 53.3 µM (inactive) | 28.6 µM (inactive) | 23.4 µM (inactive) | 37.4 µM (inactive) | 47.9 µM (inactive) | 46.8 µM (inactive)
C[C@]12CCC(=O)C=C1CC[C@@H]1[C@@H]2[C@@H](O)C[C@@]2(C)[C@H]1CC[C@]2(O)C(=O)CO [HYDROCORTISONE] | > 100 µM (inactive) | > 82.4 µM (inactive) | > 100 µM (inactive) | > 100 µM (inactive) | > 100 µM (inactive) | > 100 µM (inactive) | > 100 µM (inactive) | > 100 µM (inactive) | > 100 µM (inactive) | > 100 µM (inactive) | > 100 µM (inactive) | > 100 µM (inactive) | > 100 µM (inactive) | > 100 µM (inactive) | > 100 µM (inactive) | > 100 µM (inactive) | > 100 µM (inactive) | > 100 µM (inactive) | > 100 µM (inactive)
COc1cc2c3c(c4ccc(OC)c(OC)c4c2cc1OC)CN1CCC[C@@H]1C3 [TYLOCREBRINE] | 0.0191 µM (active) | 0.0172 µM (active) | 0.019 µM (active) | 0.0612 µM (active) | 0.0248 µM (active) | 0.0292 µM (active) | < 0.0146 µM (active) | 0.0333 µM (active) | 0.016 µM (active) | < 0.01 µM (active) | < 0.0173 µM (active) | 0.0191 µM (active) | 0.0228 µM (active) | 0.0251 µM (active) | 0.0392 µM (active) | < 0.0246 µM (active) | 0.0249 µM (active) | 0.0582 µM (active) | 0.0428 µM (active)
